Test results reported in ChEMBL document CHEMBL1201862, “PubChem BioAssay data set” (2004).
Activity calls are given as the source filed them.

Key:
[1] = molecular target: T1, Long-chain-fatty-acid--AMP ligase FadD28 (Mycobacterium tuberculosis, UniProt P9WQ59); experiment: Fluorescence polarization aasay to screen for inhibitors that compete for the binding of FadD28 to a bisubstrate Measured in Biochemical System Using Plate Reader - 2147-01_Inhibitor_Dose_CherryPick_Activity.; format: functional, Mycobacterium tuberculosis H37Rv
T1 sequence (P9WQ59 whole entry): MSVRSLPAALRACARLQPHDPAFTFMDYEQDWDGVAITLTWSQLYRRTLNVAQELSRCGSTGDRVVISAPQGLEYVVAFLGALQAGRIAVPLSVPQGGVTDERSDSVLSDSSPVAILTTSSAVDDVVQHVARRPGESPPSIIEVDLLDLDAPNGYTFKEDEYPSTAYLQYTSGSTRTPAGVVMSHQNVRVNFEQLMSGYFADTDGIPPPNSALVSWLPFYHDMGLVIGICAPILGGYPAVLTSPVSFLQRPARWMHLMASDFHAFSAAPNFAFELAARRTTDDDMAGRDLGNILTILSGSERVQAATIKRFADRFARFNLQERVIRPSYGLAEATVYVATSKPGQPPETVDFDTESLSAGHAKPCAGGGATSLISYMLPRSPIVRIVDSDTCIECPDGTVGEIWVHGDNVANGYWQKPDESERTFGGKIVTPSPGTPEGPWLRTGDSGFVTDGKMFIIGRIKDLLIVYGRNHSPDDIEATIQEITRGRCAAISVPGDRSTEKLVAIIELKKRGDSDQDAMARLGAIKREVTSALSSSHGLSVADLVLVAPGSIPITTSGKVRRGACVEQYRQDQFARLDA

fMet-Leu-Phe receptor = molecular target: T2, fMet-Leu-Phe receptor (Homo sapiens, UniProt P21462); experiment: formyl peptide receptor binders – dose response (AID 519); format: functional
T2 sequence (P21462 whole entry): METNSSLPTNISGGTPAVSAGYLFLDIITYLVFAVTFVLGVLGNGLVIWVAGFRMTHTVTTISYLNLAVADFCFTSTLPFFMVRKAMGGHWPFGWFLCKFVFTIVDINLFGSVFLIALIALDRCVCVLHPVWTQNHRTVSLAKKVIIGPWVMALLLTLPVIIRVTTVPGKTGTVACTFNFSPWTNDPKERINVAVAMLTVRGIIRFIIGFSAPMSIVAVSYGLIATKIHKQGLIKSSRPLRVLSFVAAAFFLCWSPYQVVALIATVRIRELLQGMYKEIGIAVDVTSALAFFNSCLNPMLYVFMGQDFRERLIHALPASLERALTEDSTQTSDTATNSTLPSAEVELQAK

[2] = blockers of bursicon-stimulated LGR2 cAMP reporter – cell-based, HEK293, CRE-luciferase reporter, cherry pick, set 2, dose response (AID 743343); format: functional;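 note: transfected cells were stimulated with diluted bursicon conditioned medium after compound addition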
[3] = blockade of melanocortin 4 receptor signaling – cell-based, plate reader, cherry pick, counter-screen for LGR2 antagonist project, dose response (AID 743444); format: functional;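 note: transfected HEK 293 cells stimulated with alpha-MSH peptide; potency of inhibitors of the alpha-MSH evoked signal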
[4] = A549 cell cytotoxicity, dose response, cytotoxicity control, plate reader, cherry-pick, antagonist series (AID 743412); format: functional, cell-based
[5] = viability loss in HeLa cells – cytotoxicity control for MgcRacGAP inhibitor project, dose response (AID 624300); format: functional
INS1 = experiment: INS-1E survival protection against cytokine death – cell-based, luminescence, retest, dose response (AID 449756); format: functional; settings: Rattus norvegicus;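 note: cell death triggered by IL-1 beta plus TNF-alpha plus IFN-gamma mixture; protective hits raise ATP signal compared with cytokine alone wells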
[6] = molecular target: T3, Rac GTPase-activating protein 1 (Homo sapiens, UniProt Q9H0H5); experiment: blockers of MgcRacGAP-driven Rac1 GTP hydrolysis – biochemical, ADP Hunter fluorescence, primary and confirmatory, confirmation (AID 624330); format: functional
T3 sequence (Q9H0H5 whole entry): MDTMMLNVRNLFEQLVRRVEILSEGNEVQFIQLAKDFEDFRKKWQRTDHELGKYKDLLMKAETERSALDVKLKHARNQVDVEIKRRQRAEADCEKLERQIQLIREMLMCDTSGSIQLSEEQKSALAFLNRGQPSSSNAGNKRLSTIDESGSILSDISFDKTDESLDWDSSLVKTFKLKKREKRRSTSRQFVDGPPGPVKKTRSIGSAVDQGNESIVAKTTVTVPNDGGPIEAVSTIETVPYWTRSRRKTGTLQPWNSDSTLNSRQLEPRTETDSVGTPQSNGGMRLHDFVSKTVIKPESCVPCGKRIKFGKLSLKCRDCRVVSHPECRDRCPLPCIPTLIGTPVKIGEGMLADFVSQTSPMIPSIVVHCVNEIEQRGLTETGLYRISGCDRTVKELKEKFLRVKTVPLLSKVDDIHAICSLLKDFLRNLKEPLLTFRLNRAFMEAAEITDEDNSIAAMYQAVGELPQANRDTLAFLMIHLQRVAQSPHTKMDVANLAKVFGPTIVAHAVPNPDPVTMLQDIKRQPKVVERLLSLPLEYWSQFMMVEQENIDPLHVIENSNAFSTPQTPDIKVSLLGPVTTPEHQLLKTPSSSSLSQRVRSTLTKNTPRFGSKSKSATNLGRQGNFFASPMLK

Nonstructural protein 1 = Nonstructural protein 1 (Influenza A virus, UniProt Q194T2); format: functional, Influenza A virus (A/California/07/2009(H1N1))
Chain of Nonstructural protein 1 (Q194T2 whole entry): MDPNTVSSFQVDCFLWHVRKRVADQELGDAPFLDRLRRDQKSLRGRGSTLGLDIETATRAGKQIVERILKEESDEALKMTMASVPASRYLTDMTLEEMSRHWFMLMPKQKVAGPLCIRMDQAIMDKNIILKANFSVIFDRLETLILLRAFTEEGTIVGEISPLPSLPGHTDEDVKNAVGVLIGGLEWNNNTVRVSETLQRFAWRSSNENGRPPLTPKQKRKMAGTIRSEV

[7] = HEK-293T viability loss after treatment – luminescence, T-cell screen hits, cytotoxicity control for TCR NF-kB inhibitor project, dose response (AID 489026); format: functional, cell-based;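 note: cells exposed to compound about 14 hours before the viability readout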
[8] = molecular target: T4, Apoptotic protease-activating factor 1 (Homo sapiens, UniProt O14727); format: functional
T4 sequence (O14727 whole entry): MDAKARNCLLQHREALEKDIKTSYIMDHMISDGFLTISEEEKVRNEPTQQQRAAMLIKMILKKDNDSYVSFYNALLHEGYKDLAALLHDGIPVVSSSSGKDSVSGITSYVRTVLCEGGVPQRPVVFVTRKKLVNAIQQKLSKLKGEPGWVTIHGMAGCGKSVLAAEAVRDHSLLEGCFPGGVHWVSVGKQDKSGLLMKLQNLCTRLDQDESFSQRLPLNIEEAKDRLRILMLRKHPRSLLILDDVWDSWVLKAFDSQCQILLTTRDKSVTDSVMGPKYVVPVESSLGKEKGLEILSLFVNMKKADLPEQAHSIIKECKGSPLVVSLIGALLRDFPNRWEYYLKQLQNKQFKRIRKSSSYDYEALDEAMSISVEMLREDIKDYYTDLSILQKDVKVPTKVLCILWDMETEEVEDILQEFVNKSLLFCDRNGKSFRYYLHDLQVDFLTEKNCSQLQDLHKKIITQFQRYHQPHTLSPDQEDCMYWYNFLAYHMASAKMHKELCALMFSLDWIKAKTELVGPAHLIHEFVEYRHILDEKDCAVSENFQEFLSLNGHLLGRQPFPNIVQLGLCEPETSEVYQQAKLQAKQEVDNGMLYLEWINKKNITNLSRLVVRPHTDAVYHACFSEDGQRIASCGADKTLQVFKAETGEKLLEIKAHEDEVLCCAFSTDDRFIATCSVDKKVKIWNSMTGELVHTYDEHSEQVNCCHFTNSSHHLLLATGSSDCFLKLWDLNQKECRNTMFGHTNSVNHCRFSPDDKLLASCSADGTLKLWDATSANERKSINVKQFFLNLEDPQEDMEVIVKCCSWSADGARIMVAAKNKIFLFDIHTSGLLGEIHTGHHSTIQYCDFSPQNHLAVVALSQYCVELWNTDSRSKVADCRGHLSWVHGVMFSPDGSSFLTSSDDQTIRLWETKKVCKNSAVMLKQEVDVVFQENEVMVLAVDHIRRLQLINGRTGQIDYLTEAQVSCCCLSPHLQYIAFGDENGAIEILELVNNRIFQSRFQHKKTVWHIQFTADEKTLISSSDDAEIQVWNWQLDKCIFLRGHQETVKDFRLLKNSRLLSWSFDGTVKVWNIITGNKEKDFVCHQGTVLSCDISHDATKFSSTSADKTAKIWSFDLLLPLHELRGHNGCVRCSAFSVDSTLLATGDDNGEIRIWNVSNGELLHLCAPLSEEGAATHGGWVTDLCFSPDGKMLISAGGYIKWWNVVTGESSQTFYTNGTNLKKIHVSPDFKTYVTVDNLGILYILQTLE

[9] = molecular target: T5, Fructose-bisphosphate aldolase (Mycobacterium tuberculosis, UniProt P9WQA3); experiment: Fluorescence-based biochemical high throughput dose response assay for inhibitors of the fructose-bisphosphate aldolase (FBA) of M. tuberculosis.; format: functional
T5 sequence (P9WQA3 whole entry): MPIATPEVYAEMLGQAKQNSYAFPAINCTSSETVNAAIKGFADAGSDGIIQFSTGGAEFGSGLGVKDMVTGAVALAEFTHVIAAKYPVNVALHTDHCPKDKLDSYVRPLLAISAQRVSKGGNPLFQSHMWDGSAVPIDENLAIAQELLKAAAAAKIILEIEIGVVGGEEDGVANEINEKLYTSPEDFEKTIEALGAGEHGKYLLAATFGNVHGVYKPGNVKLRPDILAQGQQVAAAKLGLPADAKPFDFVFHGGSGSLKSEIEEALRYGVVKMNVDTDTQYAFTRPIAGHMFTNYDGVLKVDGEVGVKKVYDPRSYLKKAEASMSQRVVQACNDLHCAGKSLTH

[10] = HGIII-sPLA2 enzyme inhibition potency – biochemical, QFRET, IC50, dose response (AID 743457);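 note: green fluorescence rise as the enzyme cleaves BODIPY PC-A2 in liposomes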
[11] = molecular target: T6, Oxysterols receptor LXR-beta (Homo sapiens, UniProt P55055); format: functional, cell-based;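 note: agonist activity at LXR measured by a cell-based luminescence readout across a dose range, run as a counterscreen for daf-12 agonists; potency for activation of Gal4-LXR reporter so compounds are agonists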
T6 sequence (P55055 whole entry): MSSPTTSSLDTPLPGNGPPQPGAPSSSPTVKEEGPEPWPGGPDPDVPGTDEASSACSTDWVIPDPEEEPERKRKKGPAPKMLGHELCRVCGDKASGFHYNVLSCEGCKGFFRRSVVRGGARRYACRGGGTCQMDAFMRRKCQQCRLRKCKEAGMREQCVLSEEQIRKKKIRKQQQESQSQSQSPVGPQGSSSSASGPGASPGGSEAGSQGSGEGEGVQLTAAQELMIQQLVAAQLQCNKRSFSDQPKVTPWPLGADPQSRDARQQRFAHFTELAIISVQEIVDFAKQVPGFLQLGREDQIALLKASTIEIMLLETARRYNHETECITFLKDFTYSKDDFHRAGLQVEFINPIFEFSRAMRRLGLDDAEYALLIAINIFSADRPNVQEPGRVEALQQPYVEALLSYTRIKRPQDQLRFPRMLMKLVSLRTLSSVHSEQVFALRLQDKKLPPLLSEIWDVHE

[12] = molecular target: Photoreceptor-specific nuclear receptor (Homo sapiens, UniProt Q9Y5X4); format: functional, cell-based;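 note: CHO-S cells with Gal4-NCOR and VP16-NR2E3 two-hybrid luciferase reporter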
Chain of Photoreceptor-specific nuclear receptor (Q9Y5X4 whole entry, the tested form may be a part): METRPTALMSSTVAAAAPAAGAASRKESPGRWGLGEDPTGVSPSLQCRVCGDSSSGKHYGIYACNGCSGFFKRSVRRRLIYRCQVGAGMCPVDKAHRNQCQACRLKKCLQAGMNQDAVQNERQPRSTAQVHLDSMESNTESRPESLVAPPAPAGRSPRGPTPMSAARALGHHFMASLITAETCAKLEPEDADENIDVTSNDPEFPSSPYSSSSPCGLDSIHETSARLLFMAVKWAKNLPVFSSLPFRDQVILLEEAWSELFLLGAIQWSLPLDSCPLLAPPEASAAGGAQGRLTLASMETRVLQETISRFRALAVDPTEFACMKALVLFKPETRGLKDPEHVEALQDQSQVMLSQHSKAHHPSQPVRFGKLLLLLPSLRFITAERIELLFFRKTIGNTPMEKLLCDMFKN

[13] = molecular target: T6, Oxysterols receptor LXR-beta; experiment: LXR agonists, Gal4 luciferase reporter, dose response, counter-screen for ssDAF-12 agonist project, cell-based, luminescence, HEK293, S. stercoralis campaign (AID 720737); format: functional; settings: read-out: IC50 (the source's name)
[14] = Luminescence-based cell-based high throughput dose response assay to identify activators of the DAF-12 from the parasite S. stercoralis (ssDAF-12).; format: functional
Cytochrome P450 2D6 = Cytochrome P450 2D6 (Homo sapiens, UniProt P10635);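 note: CYP2D6 member of a cytochrome P450 panel assay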
Chain of Cytochrome P450 2D6 (P10635 whole entry): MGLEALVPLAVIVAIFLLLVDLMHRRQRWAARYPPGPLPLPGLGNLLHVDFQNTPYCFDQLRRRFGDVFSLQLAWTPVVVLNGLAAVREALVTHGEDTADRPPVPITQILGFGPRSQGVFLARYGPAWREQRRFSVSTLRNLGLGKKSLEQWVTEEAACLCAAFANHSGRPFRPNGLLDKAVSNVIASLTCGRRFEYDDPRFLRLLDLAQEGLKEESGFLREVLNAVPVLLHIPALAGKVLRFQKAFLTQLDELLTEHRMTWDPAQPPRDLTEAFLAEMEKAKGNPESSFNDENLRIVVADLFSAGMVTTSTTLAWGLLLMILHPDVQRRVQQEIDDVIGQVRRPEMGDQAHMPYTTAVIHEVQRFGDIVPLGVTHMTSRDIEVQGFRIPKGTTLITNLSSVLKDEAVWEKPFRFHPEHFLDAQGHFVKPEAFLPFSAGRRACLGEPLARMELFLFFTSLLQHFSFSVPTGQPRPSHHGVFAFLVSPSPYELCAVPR

Cytochrome P450 3A4 = Cytochrome P450 3A4 (Homo sapiens, UniProt P08684);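 note: CYP3A4 tested as one member of a cytochrome P450 panel screen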
Chain of Cytochrome P450 3A4 (P08684 whole entry): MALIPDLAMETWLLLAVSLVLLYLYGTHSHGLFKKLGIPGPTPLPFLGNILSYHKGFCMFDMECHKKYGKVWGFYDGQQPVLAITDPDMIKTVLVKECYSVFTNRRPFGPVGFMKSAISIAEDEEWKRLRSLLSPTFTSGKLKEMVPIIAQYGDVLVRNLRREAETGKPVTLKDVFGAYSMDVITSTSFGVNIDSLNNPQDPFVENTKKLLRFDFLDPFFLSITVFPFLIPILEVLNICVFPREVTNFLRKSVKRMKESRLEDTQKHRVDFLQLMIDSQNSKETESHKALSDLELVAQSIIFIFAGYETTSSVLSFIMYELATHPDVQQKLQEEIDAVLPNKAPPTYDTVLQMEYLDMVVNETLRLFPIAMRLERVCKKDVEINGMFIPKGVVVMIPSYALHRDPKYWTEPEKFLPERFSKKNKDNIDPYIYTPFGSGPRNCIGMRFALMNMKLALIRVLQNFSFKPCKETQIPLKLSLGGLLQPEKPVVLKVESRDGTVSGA

Cytochrome P450 1A2 = molecular target: T7, Cytochrome P450 1A2 (Homo sapiens, UniProt P05177);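 note: PubChem cytochrome P450 panel assay, CYP1A2 panel member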
T7 sequence (P05177 whole entry): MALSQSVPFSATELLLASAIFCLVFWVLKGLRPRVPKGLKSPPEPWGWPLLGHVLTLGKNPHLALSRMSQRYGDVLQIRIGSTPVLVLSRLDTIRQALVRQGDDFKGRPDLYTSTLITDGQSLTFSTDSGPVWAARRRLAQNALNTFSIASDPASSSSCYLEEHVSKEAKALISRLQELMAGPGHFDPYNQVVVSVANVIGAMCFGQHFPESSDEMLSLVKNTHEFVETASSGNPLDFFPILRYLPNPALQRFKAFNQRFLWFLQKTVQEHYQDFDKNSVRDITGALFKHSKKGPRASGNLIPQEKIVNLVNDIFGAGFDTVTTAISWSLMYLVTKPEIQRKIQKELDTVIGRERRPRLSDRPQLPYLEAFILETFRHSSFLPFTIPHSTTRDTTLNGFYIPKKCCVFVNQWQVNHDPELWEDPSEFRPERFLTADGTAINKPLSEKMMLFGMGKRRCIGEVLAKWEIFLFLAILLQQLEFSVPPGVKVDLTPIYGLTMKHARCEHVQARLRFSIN

[15] = molecular target: Glyceraldehyde-3-phosphate dehydrogenase (Homo sapiens, UniProt P04406)
Chain of Glyceraldehyde-3-phosphate dehydrogenase (P04406 whole entry): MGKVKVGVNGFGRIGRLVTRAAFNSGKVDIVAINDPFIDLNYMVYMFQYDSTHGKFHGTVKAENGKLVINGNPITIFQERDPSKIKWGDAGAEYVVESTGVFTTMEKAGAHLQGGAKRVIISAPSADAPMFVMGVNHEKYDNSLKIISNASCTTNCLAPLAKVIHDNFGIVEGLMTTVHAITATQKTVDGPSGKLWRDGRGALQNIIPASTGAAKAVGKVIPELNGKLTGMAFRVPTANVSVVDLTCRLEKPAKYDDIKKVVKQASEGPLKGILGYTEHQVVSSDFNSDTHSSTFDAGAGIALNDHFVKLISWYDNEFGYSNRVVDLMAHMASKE

COc1ccc(CNC(=O)COC(=O)c2ccc(Br)c(S(=O)(=O)N3CCOCC3)c2)cc1
AC50 [1]: > 100 µM (inactive)

CCCOc1ccc2c(=O)c(N3C(=O)c4ccccc4C3=O)c(C)oc2c1
Ki (fMet-Leu-Phe receptor): > 66.7 µM (inactive)

CC(C)(C)n1cc(C(=O)c2ccc3ccccc3c2O)cn1
AC50 [2]: 6.45 µM (active) | AC50 [3]: 14.3 µM (active) | AC50 [4]: > 52 µM (inactive)

COC(=O)c1ccc(C2C(C(=O)c3ccc(OC)cc3)=C(O)C(=O)N2Cc2ccco2)cc1 (centres undefined)
Ki (fMet-Leu-Phe receptor): 43 µM (inactive)

Cc1ccc(S(=O)(=O)NC2=CC(=Nc3ccc(O)cc3)C(=O)c3ccccc32)cc1
CC50 [5]: 2.86 µM (active) | AC50 (INS1): 0.588 µM (active) | IC50 [6]: 78.2 µM (active) | IC50 (Nonstructural protein 1): 7.33 µM (active) | IC50 [7]: 1.58 µM (active) | IC50 [8]: 2.14 µM (active)

CCOC(=O)N1CCC(NC(=O)c2cc3cc4cc(OC)ccc4nc3o2)CC1
IC50 [9]: > 0.37 µM (active)

Cc1cccc(NC(=O)CN2C(=O)N/C(=C\c3ccc(-c4cccc(C(=O)O)c4)o3)C2=O)c1
AC50 [1]: 3.6 µM (active)

O=C(CSc1nnc(-c2ccccc2)n1-c1ccc(Cl)cc1)NNC(=S)Nc1ccccc1
IC50 [10]: > 122 µM (inactive)

Cc1ccnc(NC(=O)C2CCN(S(=O)(=O)c3c(C)c(C)cc(C)c3C)CC2)c1
EC50 [11]: > 67.6 µM (inactive) | IC50 [12]: 1.85 µM (active)

O=C1/C(=C\c2cccs2)Sc2ccc3ccccc3c21
EC50 [13]: > 67.6 µM (inactive) | EC50 [11]: > 67.5 µM (inactive) | IC50 [14]: > 67.6 µM (inactive)

Cc1ccc(-c2nnc(SCC(=O)NN=C(S)Nc3ccccc3)n2C2CCCCC2)cc1
IC50 [10]: > 122 µM (inactive)

NC(=Nc1ccccc1)NC(=O)c1nc(Cl)c(N)nc1N [PHENAMIL METHANESULFONATE]
AC50 (Cytochrome P450 2D6): 31.6 µM (inconclusive) | AC50 (Cytochrome P450 3A4): 39.8 µM (inconclusive) | EC50 [11]: > 67.5 µM (inactive) | AC50 (Cytochrome P450 1A2): 12.6 µM (inconclusive)

O=C(O)c1cc(S(=O)(=O)Nc2ccccc2C(=O)O)ccc1O
IC50 [9]: > 9.99 µM (inactive) | IC50 [15]: > 100 µM (not active)

CCN(CC)c1ccc(/C=N/NC(=O)c2ccc3c(c2)OCCO3)cc1
AC50 [1]: 74.2 µM (active)

O=[N+]([O-])c1ccccc1/C=N/n1c(S)nnc1C1CCCCC1
IC50 [10]: > 122 µM (inactive)
